In patent US20140200144A1, “TREATMENT OF CROPS WITH A LOWER ALKYL N[…] ALTER CELL CYCLE AND WATER REGULATION” (1,4 GROUP, INC., priority 2013, published 2014):

Assays:
[1] = tested on: potato meristem transcripts; test: QT-PCR analysis of potato meristem transcripts; format: cell-based, potato (Russet Burbank); settings: DMN for three days, vs control
Experimental: On the day of treatment, tubers were transferred from 3° to 20° C. and were immediately washed in running tap water. After drying at room temperature in the dark, the tubers were placed into 4 L airtight containers. A beaker containing about 5 g of activated charcoal was placed in the chamber containing the control tubers prior to sealing (Control). DMN (0.15 mL liquid) was placed on cotton wool in a beaker and sealed in the treatment chamber (DMN3 days). The chambers were incubated in the dark at 20° C. for three days. At this time tubers were removed and the lateral meristems were isolated using a curette with the aid of a dissecting microscope. […]
A set of transcripts was selected for further analysis to confirm the microarray data and to determine the possible cell cycle position of tubers treated with DMN. […] Therefore, primers were determined by isolating a longer DNA sequence from the DFCI-Potato Gene Index corresponding to the microarray oligonucleotide and searching that sequence for primers using the Applied Biosystems Primer Express 3.0 software (www.appliedbiosystems.com). cDNA template for QT-PCR was prepared from mRNA isolated from potato meristems treated with DMN for three days as described above. PCR reactions were run on a StepOne™ Real Time System and analyzed using Step One Software v2.0 (www.appliedbiosystems.com) to determine ΔΔCT values on a log10 scale. […]

[2] = tested on: sprouting root and tuber crops, bulb crops, ornamentals; test: Effect on sprouting crops; format: in vivo
potato meristems = test: 3H-thymidine incorporation into DNA of meristems from DMN-treated tubers; format: cell-based, potato (Russet Burbank); settings: for Thymidine incorporation (labeled thymidine taken up incorporated into DNA): meristems from tubers treated with DMN 3 days at 20° C.
Experimental: On the day of treatment, tubers were transferred from 3° to 20° C. and were immediately washed in running tap water. After drying at room temperature in the dark, the tubers were placed into 4 L airtight containers. A beaker containing about 5 g of activated charcoal was placed in the chamber containing the control tubers prior to sealing (Control). DMN (0.15 mL liquid) was placed on cotton wool in a beaker and sealed in the treatment chamber (DMN3 days). The chambers were incubated in the dark at 20° C. for three days. At this time tubers were removed and the lateral meristems were isolated using a curette with the aid of a dissecting microscope. Either used fresh (thymidine incorporation) or immediately frozen in liquid nitrogen and stored at −80° C., as previously described (Campbell et al., 1996). One group of DMN-treated tubers was incubated for a further two days in air (dark, 20° C.) prior to meristem isolation (DMN3 days+2). Samples were also collected from untreated non-dormant buds at day 0 immediately after removal from 3° C. storage; henceforth referred to as eco-dormant (Lang et al. 1987)
Freshly excised meristems were washed with deionized water and groups of 20 buds were incubated on 1 mL of buffer (10 mM Mes/KOH; pH 5.7) containing 0.9 μCi of ^3H-thymidine (60 μCi/μmole; American Radiolabeled Chemicals Inc., St. Louis, Mo.). The meristems were incubated on an oscillating shaker (100 rpm) at room temperature in the dark. After three hours, meristems were removed from the incubation media, washed extensively with deionized water followed by two washes with incubation buffer containing 5 mM unlabeled thymidine, blotted dry, frozen in liquid nitrogen, and stored at −80° C. To determine incorporation, the frozen meristems were homogenized in 1 mL ice-cold 10% (w/v) TCA. After standing on ice for 3-4 hours, the samples were vigorously mixed. An aliquot was removed and placed in a scintillation vial to determine total uptake. A second equal aliquot was removed and placed on a microfiber filter (GF/C; Whatman). […]

ABA levels = settings: Campbell et al. 2010; cited from earlier work
potato tubers [3] = settings: J. Zalewsky, personal communication; cited from earlier work
potato tubers [4] = settings: Beveridge et al. 1981; cited from earlier work
[5] = tested on: potato meristem transcripts; test: Microarray transcriptional profiling (POCI 44K oligo array) of potato meristems; format: cell-based, potato (Russet Burbank)
Experimental: On the day of treatment, tubers were transferred from 3° to 20° C. and were immediately washed in running tap water. After drying at room temperature in the dark, the tubers were placed into 4 L airtight containers. A beaker containing about 5 g of activated charcoal was placed in the chamber containing the control tubers prior to sealing (Control). DMN (0.15 mL liquid) was placed on cotton wool in a beaker and sealed in the treatment chamber (DMN3 days). The chambers were incubated in the dark at 20° C. for three days. At this time tubers were removed and the lateral meristems were isolated using a curette with the aid of a dissecting microscope. […] One group of DMN-treated tubers was incubated for a further two days in air (dark, 20° C.) prior to meristem isolation (DMN3 days+2).
RNA was isolated from frozen meristems by grinding to a fine powder in a mortar and pestle followed by isolation and purification using a Ribopure Kit (www.ambio.com). RNA was quantified using a BioSpec nano and quality was assessed by gel electrophoresis and visualization of ribosomal RNA. Total RNA (500 ng) was denatured in the presence of a T7 promoter primer and cDNA was synthesized using reverse transcriptase. The cDNA was used as a template for in vitro transcription by synthesis with T7RNA polymerase, which amplified target material and incorporated cyanine 3-labeled CTP. The labeled cRNA was purified using spin columns and quantified using a spectrophotometer. […] Probe generation and hybridization to the array were conducted through a contract to Gene Logic (www.genelogic.com). Twelve samples were used to probe against the POCI array, three samples from eco-dormant meristems (harvested directly from 3° C. storage), three samples from meristems isolated from tubers treated with DMN for three days in a closed container, three samples treated with water for three days in a closed container, three samples treated with DMN for three days and then exposed to air for two days. The three samples for each treatment were biological replicates.
Analysis of the microarray was conducted in two stages; total array data was examined using a linear model and the software limma, and pathway analysis was conducted by linking the potato sequences to the Arabidopsis thaliana. […] The data was corrected for background and normalized between arrays using a loess method. […] The use of limma for analysis of oligo arrays was accomplished by analyzing data from a single emission channel.
The array data was transformed to log base 2 and normalized between arrays using default parameters in GeneMathsXT software package (www.applied-maths.com). […] Pathway Studio 8.0 (www.ariadnegenomics.com) was utilized to determine metabolic changes that were associated with DMN treated for three days compared to controls.

berries = settings: freshly harvested berries; copending application; cited from earlier work
[6] = DMN three days vs three-day control

Compound: Cc1ccc(C)c2ccccc12 [DMN, 1,4-dimethylnaphthalene]
- transcripts for CDKB1, CYCD3, PCNA, and UTPase (G1/S-phase or early S-phase) [1]: decreased
- transcripts for KRP1, KRP2, MYC2, WRKY, and CYCA3 [1]: elevated
- effect on sprouting root and tuber crops ([2]; beet, carrot, cassaca, dasheen (taro), ginger, ginseng, horseradish, parsnip, pototato, sweet potato, turnip, yam): effective
- effect on sprouting ornamentals ([2]; flowering bulbs): effective
- effect on sprouting bulb crops ([2]; garlic, leek, onion, shallot): effective
- Thymidine incorporation (labeled thymidine taken up incorporated into DNA) (potato meristems; Run 1, control 14.3 ± 2.1%): 6.7 ± 0.4%
- Thymidine incorporation (labeled thymidine taken up incorporated into DNA) (potato meristems; Run 2, control 12.5 ± 0.2%): 6.5 ± 1.0%
- reduction in thymidine incorporation into DNA (potato meristems; non-dormant tuber meristems following DMN treatment, vs control): about 50%
- ABA levels over control tissues (ABA levels): did not result in an increase in ABA levels
- turgidity and tuber fresh weight (potato tubers [3]): increase in turgidity and maintenance of tuber fresh weight
- premature sprouting of potato tubers (potato tubers [4]): shown to prevent premature sprouting
- expression of transcripts that encode cyclin or cyclin-like proteins [5, 6]: decreased expression
- transcripts assigned to water regulation and responses to salt stress [5, 6]: increased
- expression of the Cln1 homolog CYCA1 ([5]; DMN treatment): decrease
- Nucleoside diphosphate kinase (NDPK) transcript ([5]; exposure to DMN): down regulated
- hydration and shelf life of berries (berries): maintain improved hydration
